Assay results reported in patent publication US9480259B2, “Pyrazolopyrans having herbicidal and pharmaceutical properties” (BASF SE, priority 2012, dated 2016).

Target: Arabidopsis thaliana SHMT
Test: SHMT activity assay (ED50 SHMT), coupled with N5,N10-CH2-THF dehydrogenase, NADH at 340 nm
Assay type: biochemical
Outline: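 His-tagged SHMT purified on Ni-NTA. NADH formation followed at 340 nm for 30 min; ED50 from inhibition of initial velocity.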

[1] = Table 2, Arabidopsis thaliana SHMT enzyme assay, values given as upper bounds
[2] = Table 2, values given as upper bounds
[3] = inhibition of initial velocity of Arabidopsis thaliana SHMT
[4] = Arabidopsis thaliana SHMT enzyme assay, values given as upper bounds

Cc1n[nH]c2c1C(c1cc(C#N)cc(-c3ccc(Cl)cc3)c1)(C1CCC1)C(C#N)=C(N)O2 (stereo not drawn) [Compound 2.333]
EC50 [1]: < 0.01 µM

Cc1n[nH]c2c1C(c1cc(Br)cc(C(F)(F)F)c1)(C1CCC1)C(C#N)=C(N)O2 (stereo not drawn) [Compound 2.233]
EC50 [1]: < 0.01 µM

N#CC1=C(N)Oc2[nH]nc(C3CC3)c2C1(c1cc(Cl)cc(Cl)c1)C1CCC1 (racemic) [Compound 2.156.]
EC50 [2]: < 0.1 µM

CC(C)CC1(c2cc(Cl)cc(Cl)c2)C(C#N)=C(N)Oc2[nH]ncc21 (stereo not drawn) [Compound 2.205.]
EC50 [2]: < 10 µM

Cc1n[nH]c2c1C(c1cc(Cl)cc(C(=O)O)c1)(C1CCC1)C(C#N)=C(N)O2 (stereo not drawn) [Compound 2.382]
EC50 [1]: < 0.1 µM

Cc1n[nH]c2c1C(c1cc(Cl)cc(-c3ccc(Cl)cc3)c1)(C1CCC1)C(C#N)=C(N)O2 (stereo not drawn) [Compound 2.225]
EC50 [1]: < 0.01 µM

Cc1n[nH]c2c1C(c1cc(Cl)cc(OCC#N)c1)(C1CCC1)C(C#N)=C(N)O2 (stereo not drawn) [Compound 2.443]
EC50 [2]: < 0.01 µM

CCC1(c2ccc(C)c(Br)c2)C(C#N)=C(N)Oc2[nH]nc(C)c21 (stereo not drawn) [Compound 2.466]
EC50 [2]: < 0.1 µM

Cc1n[nH]c2c1C(c1cc(Cl)cc(Cl)c1)(C1CC=CC1)C(C#N)=C(N)O2 (stereo not drawn) [Compound 2.291]
EC50 [1]: < 0.01 µM

CCC1(c2cc(Cl)cc(Cl)c2)C(C#N)=C(N)Oc2[nH]nc(C(C)C)c21 (stereo not drawn) [Compound 2.132.]
EC50 [2]: < 1 µM

CCC1(c2ccc(Cl)c(Cl)c2)C(C#N)=C(N)Oc2[nH]nc(C)c21 (stereo not drawn) [Compound 2.14.]
EC50 [2]: < 0.1 µM

CCC1(c2ccc(OS(=O)(=O)CC)cc2)C(C#N)=C(N)Oc2[nH]nc(C)c21 (stereo not drawn) [Compound 2.26.]
EC50 [2]: < 10 µM

COC(=O)c1ccc(-c2cc(Cl)cc(C3(C4CCC4)C(C#N)=C(N)Oc4[nH]nc(C)c43)c2)cc1 (stereo not drawn) [Compound 2.458]
EC50 [2]: < 0.1 µM

Cc1n[nH]c2c1C(c1cc(-c3cccc(F)c3)cs1)(C1CCC1)C(C#N)=C(N)O2 (stereo not drawn) [Compound 4.47]
EC50 [3]: < 0.1 µM

Cc1n[nH]c2c1C(c1cc(Cl)cc(Cl)c1)(C1CCC1)C(C#N)=C(N)O2 (stereo not drawn) [Compound 2.154.]
EC50 [2]: < 0.01 µM

CCC1(c2cccc(C(F)(F)F)c2)C(C#N)=C(N)Oc2[nH]ncc21 (stereo not drawn) [Compound 2.63.]
EC50 [2]: < 10 µM

Cc1n[nH]c2c1C(c1cccc(C(F)(F)F)c1)(C(F)(F)F)C(C#N)=C(N)O2 (stereo not drawn) [Compound 2.95.]
EC50 [2]: < 1 µM

COC(=O)c1ccc(-c2cc(C#N)cc(C3(C4CCC4)C(C#N)=C(N)Oc4[nH]nc(C)c43)c2)cc1 (stereo not drawn) [Compound 2.455]
EC50 [2]: < 0.1 µM

CCC1(c2ccc(C(C)(C)C)cc2)C(C#N)=C(N)Oc2[nH]nc(C)c21 (stereo not drawn) [Compound 2.7.]
EC50 [2]: < 10 µM

CCCC1(c2cc(Br)cc(C#N)c2)C(C#N)=C(N)Oc2[nH]nc(COC)c21 (stereo not drawn) [Compound 2.592]
EC50 [2]: < 1 µM

COc1c(Cl)cc(C2(C3CCC3)C(C#N)=C(N)Oc3[nH]nc(C)c32)cc1Cl (stereo not drawn) [Compound 2.292]
EC50 [1]: < 0.01 µM

CCCC1(c2cc(C#N)cc(C(F)(F)F)c2)C(C#N)=C(N)Oc2[nH]nc(C)c21 (stereo not drawn) [Compound 2.531]
EC50 [2]: < 0.01 µM

Cc1n[nH]c2c1C(c1ccc(F)c(Cl)c1)(C1CCCC1)C(C#N)=C(N)O2 (stereo not drawn) [Compound 2.228]
EC50 [1]: < 0.1 µM

CCCC1(c2cc(Br)cc(C#N)c2)C(C#N)=C(N)Oc2[nH]nc(CC)c21 (stereo not drawn) [Compound 2.578]
EC50 [2]: < 0.1 µM

Cc1n[nH]c2c1C(c1cc(Cl)cc(Oc3cccc(Cl)c3)c1)(C1CCC1)C(C#N)=C(N)O2 (stereo not drawn) [Compound 2.237]
EC50 [1]: < 0.01 µM

Cc1n[nH]c2c1C(c1cc(CCC#N)cc(-c3nnn[nH]3)c1)(C(C)C)C(C#N)=C(N)O2 (stereo not drawn) [Compound 2.710]
EC50 [4]: < 0.1 µM

CCC1(c2cc(C#N)cc(C(F)(F)F)c2)C(C#N)=C(N)Oc2[nH]nc(OC)c21 (stereo not drawn) [Compound 2.599]
EC50 [2]: < 1 µM

Cc1n[nH]c2c1C(c1cc(Cl)cc(C(F)(F)F)c1)(C(C)C)C(C#N)=C(N)O2 (stereo not drawn) [Compound 2.316]
EC50 [1]: < 0.01 µM

Cc1n[nH]c2c1C(c1cc(Cl)cc(Cl)c1)(C1(F)COC1)C(C#N)=C(N)O2 (racemic) [Compound 2.478]
EC50 [2]: < 0.1 µM

Cc1n[nH]c2c1C(c1cccc(C(F)(F)F)c1)(C1CC1)C(C#N)=C(N)O2 (stereo not drawn) [Compound 2.60.]
EC50 [2]: < 1 µM

Cc1n[nH]c2c1C(c1cc(Cl)cc(Cl)c1)(C1CC(F)C1)C(C#N)=C(N)O2 (stereo not drawn) [Compound 2.674]
EC50 [4]: < 0.01 µM

Cc1n[nH]c2c1C(c1cc(C#N)cc(N(C)C(=O)c3cccc(C(=O)O)c3)c1)(C(C)C)C(C#N)=C(N)O2 (stereo not drawn) [Compound 2.717]
EC50 [4]: < 0.1 µM

N#CC1=C(N)Oc2[nH]ncc2C1(c1cc(C#N)cc(C#N)c1)C1CCC1 (stereo not drawn) [Compound 2.286]
EC50 [1]: < 0.01 µM

Cc1n[nH]c2c1C(c1cc(F)cc(C#N)c1)(C1CCC1)C(C#N)=C(N)O2 (stereo not drawn) [Compound 2.258]
EC50 [1]: < 0.01 µM

Cc1n[nH]c2c1C(c1cc(C#N)cc(-c3cc(Cl)cc(C(=O)O)c3)c1)(C1CCC1)C(C#N)=C(N)O2 (stereo not drawn) [Compound 2.559]
EC50 [2]: < 0.1 µM

Cc1n[nH]c2c1C(c1cc(Cl)cc(Cl)c1)(C1CCCCC1)C(C#N)=C(N)O2 (stereo not drawn) [Compound 2.206.]
EC50 [2]: < 10 µM

Cc1n[nH]c2c1C(c1cc(Cl)cc(CCC#N)c1)(C1CCC1)C(C#N)=C(N)O2 (stereo not drawn) [Compound 2.555]
EC50 [2]: < 0.01 µM

Cc1n[nH]c2c1C(c1cccc(C(C)(F)F)c1)(C1CCC1)C(C#N)=C(N)O2 (stereo not drawn) [Compound 2.305]
EC50 [1]: < 0.1 µM

COC(=O)c1cc(OC(F)(F)F)cc(-c2cc(C#N)cc(C3(C4CCC4)C(C#N)=C(N)Oc4[nH]nc(C)c43)c2)c1 (stereo not drawn) [Compound 2.551]
EC50 [2]: < 0.1 µM

Cc1n[nH]c2c1C(c1cc(C#N)cc(-c3cccc(C(=O)O)c3)c1)(C1(F)CC1)C(C#N)=C(N)O2 (stereo not drawn) [Compound 2.511]
EC50 [2]: < 0.01 µM

COC(=O)c1cc(-c2cc(C#N)cc(C3(C4CCC4)C(C#N)=C(N)Oc4[nH]nc(C)c43)c2)cc([N+](=O)[O-])c1 (stereo not drawn) [Compound 2.554]
EC50 [2]: < 0.01 µM

N#CC1=C(N)Oc2[nH]ncc2C1(c1cc(Cl)cc(Br)c1)C1CCC1 (stereo not drawn) [Compound 2.248]
EC50 [1]: < 0.01 µM

Cc1n[nH]c2c1C(c1cc(Cl)cc(-c3ccc(-c4nnn[nH]4)cc3)c1)(C1CCC1)C(C#N)=C(N)O2 (stereo not drawn) [Compound 2.493]
EC50 [2]: < 0.01 µM

Cc1n[nH]c2c1C(c1cc(C#N)cc(-c3ccc(C(=O)O)c(Cl)c3)c1)(C1CCC1)C(C#N)=C(N)O2 (stereo not drawn) [Compound 2.562]
EC50 [2]: < 0.01 µM

Cc1n[nH]c2c1C(c1cc(C#N)cc(N(C)S(=O)(=O)CC(=O)O)c1)(C(C)C)C(C#N)=C(N)O2 (stereo not drawn) [Compound 2.732]
EC50 [4]: < 0.1 µM

CCCC1(c2cc(Cl)cc(C#N)c2)C(C#N)=C(N)Oc2[nH]nc(CC)c21 (stereo not drawn) [Compound 2.577]
EC50 [2]: < 0.1 µM

Cc1n[nH]c2c1C(c1cccc(Cl)c1)(C1CCCC1)C(C#N)=C(N)O2 (stereo not drawn) [Compound 2.211.]
EC50 [2]: < 0.1 µM

Cc1n[nH]c2c1C(c1cc(C#N)cc(N(C)S(=O)(=O)CC#N)c1)(C1CCC1)C(C#N)=C(N)O2 (stereo not drawn) [Compound 2.724]
EC50 [4]: < 0.1 µM

Cc1n[nH]c2c1C(c1cc(Cl)cc(C(F)(F)F)c1)(C1(F)COC1)C(C#N)=C(N)O2 (stereo not drawn) [Compound 2.502]
EC50 [2]: < 0.01 µM

COc1ccc(C2(C3CCCC3)C(C#N)=C(N)Oc3[nH]ncc32)cc1Cl (stereo not drawn) [Compound 2.254]
EC50 [1]: < 10 µM

Cc1n[nH]c2c1C(c1ccc(C(=O)O)s1)(C1CCC1)C(C#N)=C(N)O2 (stereo not drawn) [Compound 4.80]
EC50 [3]: < 10 µM

CCC1(c2cc(C(F)(F)F)cc(C(F)(F)F)c2)C(C#N)=C(N)Oc2[nH]nc(C(F)F)c21 (stereo not drawn) [Compound 2.166.]
EC50 [2]: < 0.1 µM

COc1n[nH]c2c1C(c1cc(Cl)cc(Cl)c1)(C(C)C)C(C#N)=C(N)O2 (stereo not drawn) [Compound 2.378]
EC50 [1]: < 0.01 µM

Cc1n[nH]c2c1C(c1cc(C#N)cc(-c3cc(OC(F)(F)F)cc(C(=O)O)c3)c1)(C1CCC1)C(C#N)=C(N)O2 (stereo not drawn) [Compound 2.643]
EC50 [2]: < 0.01 µM

Cc1n[nH]c2c1C(c1ccc3c(c1)CCO3)(C1CCC1)C(C#N)=C(N)O2 (stereo not drawn) [Compound 4.32]
EC50 [3]: < 0.01 µM

Cc1n[nH]c2c1C(c1cc(C#N)cc(N(C)CCC#N)c1)(C1CCC1)C(C#N)=C(N)O2 (stereo not drawn) [Compound 2.629]
EC50 [2]: < 0.01 µM

Cc1n[nH]c2c1C(c1cc(C#N)cc(N(C)C(=O)CCCC#N)c1)(C1CCC1)C(C#N)=C(N)O2 (stereo not drawn) [Compound 2.659]
EC50 [4]: < 0.01 µM

Cc1n[nH]c2c1C(c1cc(C#N)cc(N(C)C(=O)c3ccc(C(=O)O)cc3)c1)(C1CCC1)C(C#N)=C(N)O2 (stereo not drawn) [Compound 2.634]
EC50 [2]: < 0.1 µM

Cc1n[nH]c2c1C(c1nc3ccccc3o1)(C1CCC1)C(C#N)=C(N)O2 (stereo not drawn) [Compound 4.46]
EC50 [3]: < 0.01 µM

CCC1(c2cc(C)co2)C(C#N)=C(N)Oc2[nH]nc(C)c21 (stereo not drawn) [Compound 4.79]
EC50 [3]: < 10 µM

Cc1n[nH]c2c1C(c1cc(Cl)cc(CCc3nnn[nH]3)c1)(C1CCC1)C(C#N)=C(N)O2 (stereo not drawn) [Compound 2.539]
EC50 [2]: < 0.01 µM

CCCC1(c2cccc(Cl)c2)C(C#N)=C(N)Oc2[nH]nc(C)c21 (stereo not drawn) [Compound 2.94.]
EC50 [2]: < 1 µM

Cc1n[nH]c2c1C(c1cc(C(F)(F)F)c3nc(C(=O)O)ccc3c1)(C1CCC1)C(C#N)=C(N)O2 (stereo not drawn) [Compound 4.39]
EC50 [3]: < 0.01 µM

CCC1(c2cc(F)cc(Cl)c2)C(C#N)=C(N)Oc2[nH]nc(C)c21 (stereo not drawn) [Compound 2.20.]
EC50 [2]: < 1 µM

CCC1(CCC2CCCCC2)C(C#N)=C(N)Oc2[nH]nc(C)c21 (racemic) [Compound 4.65]
EC50 [3]: < 1 µM

CCC1(c2cc(Cl)cc(C#N)c2)C(C#N)=C(N)Oc2[nH]nc(C(F)F)c21 (stereo not drawn) [Compound 2.605]
EC50 [2]: < 0.01 µM
